Results as given in patent publication US20230027361A1, “METTL3 MODULATORS” (priority 2019, published 2023).

What follows are molecules tested against METTL1/WDR4 (Homo sapiens, UniProt Q9UBP6) (assay: METTL1 Assay (METTL1 biochemical assay)). Conditions: not given.
Procedure: Assays were performed in a 25 μl-volume in 384-well V-bottom polypropylene microplates (Greiner Bio-One, cat. No. 781280) at ambient temperature. Optimized 1× assay buffer was 20 mM HEPES pH 7.5, 50 mM KCl, 250 μM MgCl2, 1 mM DTT, 0.01% Tween, 0.01% BSG, 0.004 U/μl RNAseOUT (cat. No. 10777019, ThermoFisher Scientific, Waltham, Mass.). For compound screening METTL1/WDR4 (final concentration, f.c.=6.25 nM) was added using a Multidrop Combi (ThermoFisher Scientific, Waltham, Mass.) and preincubated for 5 min. Reactions were started by adding 3′ biotinylated RNA ([…]-biotin) (f.c.=25 nM) and 3H-SAM (f.c.=60 nM) substrates. Reactions proceeded for 20 minutes and were quenched with excess non-radioactive SAM (f.c.=15 μM). The reactions were then transferred to streptavidin-coated flashplates and incubated for 2 hours at 25° C. Following two washing cycles with 0.1% Tween-20, the plates were sealed and read on a TopCount (PerkinElmer, Waltham, Mass.) plate-based scintillation counter. For determination of kinetic parameters, reaction times were optimized so that measurements were taken during the initial velocity phase of the reaction.

Sequence of METTL1/WDR4 (Q9UBP6 whole entry, species assumed): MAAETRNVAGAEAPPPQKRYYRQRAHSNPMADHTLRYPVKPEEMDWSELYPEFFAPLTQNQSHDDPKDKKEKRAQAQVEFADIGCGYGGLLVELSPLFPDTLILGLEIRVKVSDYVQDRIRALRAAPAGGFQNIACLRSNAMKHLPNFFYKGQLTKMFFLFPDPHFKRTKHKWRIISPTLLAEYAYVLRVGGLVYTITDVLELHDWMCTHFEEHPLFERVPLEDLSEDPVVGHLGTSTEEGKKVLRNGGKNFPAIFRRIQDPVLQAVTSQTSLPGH
Sequence of METTL1/WDR4 (P57081 whole entry partner, species assumed): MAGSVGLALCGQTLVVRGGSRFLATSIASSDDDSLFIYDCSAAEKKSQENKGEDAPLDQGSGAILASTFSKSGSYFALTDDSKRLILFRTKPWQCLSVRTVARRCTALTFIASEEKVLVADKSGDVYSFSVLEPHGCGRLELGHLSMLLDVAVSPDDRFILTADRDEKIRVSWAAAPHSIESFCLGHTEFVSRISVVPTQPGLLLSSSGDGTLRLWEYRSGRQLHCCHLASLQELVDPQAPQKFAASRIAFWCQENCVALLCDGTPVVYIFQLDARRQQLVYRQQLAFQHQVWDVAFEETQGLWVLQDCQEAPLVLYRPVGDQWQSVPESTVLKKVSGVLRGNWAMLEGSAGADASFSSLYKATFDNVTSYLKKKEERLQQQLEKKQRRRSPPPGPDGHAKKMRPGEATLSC

| Structure (SMILES) | IC50 |
| --- | --- |
| C=CCc1cn([C@@H]2O[C@H](COc3ccc4ccc(NC)nc4c3)[C@@H](O)[C@H]2O)c2ncnc(N)c12 [I-226] | > 1 µM |
| CNc1ccc2ccc(OC[C@H]3O[C@H](n4cc(C(O)C5CC5)c5c(N)ncnc54)[C@H](O)[C@@H]3O)cc2n1 (stereo partly drawn) [I-227] | > 1 µM |
| CNc1ccc2ccc(OC[C@H]3O[C@@H](n4cc(F)c5c(N)ncnc54)[C@@H](F)[C@@H]3O)cc2n1 [I-230] | > 1 µM |

Same assay, conditions: METTL1 biochemical assay; read-out: METTL1 IC50

| Structure (SMILES) | IC50 |
| --- | --- |
| CCNc1ccc2ccc(OC[C@H]3O[C@@H](n4cc(-c5ccn(C)n5)c5c(N)ncnc54)[C@@H](F)[C@@H]3O)cc2n1 [I-7] | > 1 µM |
| CNc1ccc2ccc(OC[C@H]3O[C@@H](n4cc(-c5ccn(C6CCC6)n5)c5c(N)ncnc54)[C@@H](F)[C@@H]3O)cc2n1 [I-143] | > 1 µM |
| CNc1ccc2ccc(OC[C@H]3O[C@@H](n4cc(-c5ccn(C6COC6)n5)c5c(N)ncnc54)[C@@H](F)[C@@H]3O)cc2n1 [I-144] | > 1 µM |

What follows are molecules tested on MOLM-13 cells (assay: MOLM-13 48 Hour Cell Proliferation Assay). Conditions: Homo sapiens.
Assay type: cell-based
Procedure: MOLM-13 (DSMZ) cells were seeded at 1000 cells per well in a volume of 44 μL in a Falcon 384-well tissue culture treated clear bottom microplate in RPMI 1640 media containing 10% fetal bovine serum using a Multidrop Combi (ThermoFisher Scientific). Cells were incubated overnight at 37° C. in a humidified tissue culture incubator. The Mosquito® HTS Liquid Handler was used to make a compound/media intermediate plate by aliquoting 1 μL of compound from the initial compound dilution plate (concentrations ranging from 10.0 mM to 38.0 nM in 100% DMSO) into a V bottom 384-well screen matrix plate containing 49 μL of media containing the appropriate serum (50-fold dilution, 2% DMSO). The Apricot liquid handling system was used to transfer 6.2 μL compounds from the intermediate plate into the Falcon 384-well tissue culture plate containing 44 μL cells (10-point, 4-fold dilution spanning concentrations 25.0 μM to […], 0.25% DMSO final), and placed in a humidified tissue culture incubator at 37° C. After 48 hours, 25 μL of Cell Titer-Glo reagent (Promega) was added to each well using a Multidrop Combi. The plate was protected from light and placed on an IKA plate shaker for at 300 rpm for 10 minutes at room temperature. The plate was read on an EnVision plate reader (Perkin Elmer) using the Ultra Sensitive Luminescence protocol. Data analysis was performed by normalizing the raw luminescence units to an average of the positive control values for staurosporine (100% cell death) and the negative control values for DMSO (0% cell death). An IC50 was calculated using a 4-parameter logistic nonlinear regression model in GraphPad Prism.

| Structure (SMILES) | IC50 |
| --- | --- |
| CNc1ccc2ccc(OC[C@H]3O[C@@H](n4cc(-c5ccn(C6CCC6)n5)c5c(N)ncnc54)[C@@H](F)[C@@H]3O)cc2n1 [I-143] | 1 to 10 µM |
| CNc1ccc2ccc(OC[C@H]3O[C@@H](n4cc(-c5ccn(C6COC6)n5)c5c(N)ncnc54)[C@@H](F)[C@@H]3O)cc2n1 [I-144] | 1 to 10 µM |
| C=CCc1cn([C@@H]2O[C@H](COc3ccc4ccc(NC)nc4c3)[C@@H](O)[C@H]2O)c2ncnc(N)c12 [I-226] | < 1 µM |
| CNc1ccc2ccc(OC[C@H]3O[C@H](n4cc(C(O)C5CC5)c5c(N)ncnc54)[C@H](O)[C@@H]3O)cc2n1 (stereo partly drawn) [I-227] | > 10 µM |
| CNc1ccc2ccc(OC[C@H]3O[C@@H](n4cc(F)c5c(N)ncnc54)[C@@H](F)[C@@H]3O)cc2n1 [I-230] | 1 to 10 µM |

What follows are molecules tested against METTL3/METTL14 (Homo sapiens, UniProt Q86U44) (assay: METTL3-14 Standard Enzyme Assay (METTL3 biochemical assay)). Conditions: METTL3 biochemical assay; read-out: METTL3 IC50.
Summary of the method: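 Tritium transfer from ³H-SAM (100 nM) to biotinylated RNA (100 nM) captured on streptavidin flashplates and counted by scintillation. Enzyme complex (2.5 nM) with compound, 5 min preincubation, 30 min reaction at ambient temperature, HEPES pH 7.5 buffer, stopped by excess unlabeled SAM.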

Sequence of METTL3/METTL14 (Q86U44 whole entry, species assumed): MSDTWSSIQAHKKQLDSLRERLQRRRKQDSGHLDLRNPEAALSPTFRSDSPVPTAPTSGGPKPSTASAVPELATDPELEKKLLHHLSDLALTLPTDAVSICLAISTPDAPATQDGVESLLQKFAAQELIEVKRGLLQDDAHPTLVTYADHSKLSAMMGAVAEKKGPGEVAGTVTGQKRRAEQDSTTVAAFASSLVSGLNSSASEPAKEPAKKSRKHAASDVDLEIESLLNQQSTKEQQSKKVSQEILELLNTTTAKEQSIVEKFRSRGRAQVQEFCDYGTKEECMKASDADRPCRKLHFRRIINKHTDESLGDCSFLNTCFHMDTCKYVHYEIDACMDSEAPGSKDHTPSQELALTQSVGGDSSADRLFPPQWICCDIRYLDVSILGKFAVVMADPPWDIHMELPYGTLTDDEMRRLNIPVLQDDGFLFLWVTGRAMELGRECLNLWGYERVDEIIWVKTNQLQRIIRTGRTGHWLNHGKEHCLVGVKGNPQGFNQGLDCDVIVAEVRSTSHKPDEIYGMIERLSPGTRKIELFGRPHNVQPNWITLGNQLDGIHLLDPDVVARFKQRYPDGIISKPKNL
Sequence of METTL3/METTL14 (Q9HCE5 whole entry partner, species assumed): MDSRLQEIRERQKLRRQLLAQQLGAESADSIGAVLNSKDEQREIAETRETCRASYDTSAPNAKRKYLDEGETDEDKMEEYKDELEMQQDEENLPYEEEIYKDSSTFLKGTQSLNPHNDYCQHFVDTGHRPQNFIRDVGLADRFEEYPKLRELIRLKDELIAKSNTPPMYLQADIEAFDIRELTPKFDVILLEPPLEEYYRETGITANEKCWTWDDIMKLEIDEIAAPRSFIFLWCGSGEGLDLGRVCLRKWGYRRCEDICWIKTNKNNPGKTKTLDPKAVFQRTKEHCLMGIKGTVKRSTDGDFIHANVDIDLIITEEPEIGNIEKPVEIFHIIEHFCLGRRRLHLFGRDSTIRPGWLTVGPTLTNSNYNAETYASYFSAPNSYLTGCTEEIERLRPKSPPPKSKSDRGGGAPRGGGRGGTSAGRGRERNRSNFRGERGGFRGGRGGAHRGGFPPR

| Structure (SMILES) | IC50 |
| --- | --- |
| CNc1ccc2ccc(OC[C@H]3O[C@@H](n4cc(-c5ccn(C6CCC6)n5)c5c(N)ncnc54)[C@@H](F)[C@@H]3O)cc2n1 [I-143] | < 0.01 µM |
| C=CCc1cn([C@@H]2O[C@H](COc3ccc4ccc(NC)nc4c3)[C@@H](O)[C@H]2O)c2ncnc(N)c12 [I-226] | < 0.01 µM |
| CNc1ccc2ccc(OC[C@H]3O[C@H](n4cc(C(O)C5CC5)c5c(N)ncnc54)[C@H](O)[C@@H]3O)cc2n1 (stereo partly drawn) [I-227] | < 0.01 µM |
| CNc1ccc2ccc(OC[C@H]3O[C@@H](n4cc(F)c5c(N)ncnc54)[C@@H](F)[C@@H]3O)cc2n1 [I-230] | < 0.01 µM |

Same assay, conditions: read-out: METTL3 IC50; METTL3 biochemical assay

| Structure (SMILES) | IC50 |
| --- | --- |
| CCNc1ccc2ccc(OC[C@H]3O[C@@H](n4cc(-c5ccn(C)n5)c5c(N)ncnc54)[C@@H](F)[C@@H]3O)cc2n1 [I-7] | < 0.01 µM |
| CNc1ccc2ccc(OC[C@H]3O[C@@H](n4cc(-c5ccn(C6COC6)n5)c5c(N)ncnc54)[C@@H](F)[C@@H]3O)cc2n1 [I-144] | < 0.01 µM |

What follows are molecules tested on MOLM-13 cells (assay: MOLM-13 96 Hour Cell Proliferation Assay). Conditions: Homo sapiens, MOLM-13, 96 h.
Assay type: cell-based
Procedure: MOLM-13 (DSMZ) cells were seeded at 600 cells per well in a volume of 44 μL in a Greiner Bio-One CELLSTAR™ 384 Well Polystyrene Cell Culture clear bottom microplate in RPMI 1640 media containing 10% fetal bovine serum using a Multidrop Combi (ThermoFisher Scientific). Cells were incubated overnight at 37° C. in a humidified tissue culture incubator. To prevent evaporation or to reduce edge effect, add 50 μL or more H2O to an empty plate, cover, and place on top of the cell plates. The Mosquito® HTS Liquid Handler was used to make a compound/media intermediate plate by aliquoting 1 μL of compound from the initial compound dilution plate (concentrations ranging from 10.0 mM to 38.0 nM in 100% DMSO) into Bio-One 384-well polypropylene conical bottom microplate containing 49 μL of media containing the appropriate serum (50-fold dilution, 2% DMSO, compound concentrations ranging from 200.0 μM and […]). The Apricot liquid handling system was used to transfer 6.2 μL compounds from the intermediate plate into the seeding plate containing 44 μL cells (8-fold dilution spanning concentrations 25.0 μM to […], 0.25% DMSO final), and placed in a humidified tissue culture incubator at 37° C. After 96 hours, 25 μL of Cell Titer-Glo reagent (Promega) was added to each well using an Integra liquid handling system. The plate was protected from light using TopSeal-A (Black) film over the entire plate, added White Bottom seal film on the bottom of the entire plate for a better reading on the Envision, and placed on an IKA plate shaker for at 300 rpm for 10 minutes at room temperature. The plate was read on an EnVision plate reader (Perkin Elmer) using the Ultra Sensitive Luminescence protocol. Data analysis was performed by normalizing the raw luminescence units to an average of the positive control values for staurosporine (100% cell death) and the negative control values for DMSO (0% cell death). An IC50 was calculated using a 4-parameter logistic nonlinear regression model in GraphPad Prism.

| Structure (SMILES) | IC50 |
| --- | --- |
| CCNc1ccc2ccc(OC[C@H]3O[C@@H](n4cc(-c5ccn(C)n5)c5c(N)ncnc54)[C@@H](F)[C@@H]3O)cc2n1 [I-7] | < 1 µM |

These molecules were tested against PRMT5-MEP50 (Homo sapiens, UniProt O14744) (assay: PRMT5 Assay (PRMT5 biochemical assay)). Conditions: PRMT5 biochemical assay; read-out: PRMT5 IC50.
Summary of the method: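 Radiometric methyltransferase read-out: after 60 min reaction, excess unlabelled SAM (15 μM) stops turnover and biotinylated H4 peptide (100 nM) carrying 3H-methyl from 250 nM 3H-SAM is captured on streptavidin flashplates (2 h, 25° C) for scintillation counting. Enzyme, 2.5 nM PRMT5-MEP50, was preincubated 5 min with compound in pH 8.0 Tris buffer with DTT and Tween.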

Sequence of PRMT5-MEP50 (O14744 whole entry): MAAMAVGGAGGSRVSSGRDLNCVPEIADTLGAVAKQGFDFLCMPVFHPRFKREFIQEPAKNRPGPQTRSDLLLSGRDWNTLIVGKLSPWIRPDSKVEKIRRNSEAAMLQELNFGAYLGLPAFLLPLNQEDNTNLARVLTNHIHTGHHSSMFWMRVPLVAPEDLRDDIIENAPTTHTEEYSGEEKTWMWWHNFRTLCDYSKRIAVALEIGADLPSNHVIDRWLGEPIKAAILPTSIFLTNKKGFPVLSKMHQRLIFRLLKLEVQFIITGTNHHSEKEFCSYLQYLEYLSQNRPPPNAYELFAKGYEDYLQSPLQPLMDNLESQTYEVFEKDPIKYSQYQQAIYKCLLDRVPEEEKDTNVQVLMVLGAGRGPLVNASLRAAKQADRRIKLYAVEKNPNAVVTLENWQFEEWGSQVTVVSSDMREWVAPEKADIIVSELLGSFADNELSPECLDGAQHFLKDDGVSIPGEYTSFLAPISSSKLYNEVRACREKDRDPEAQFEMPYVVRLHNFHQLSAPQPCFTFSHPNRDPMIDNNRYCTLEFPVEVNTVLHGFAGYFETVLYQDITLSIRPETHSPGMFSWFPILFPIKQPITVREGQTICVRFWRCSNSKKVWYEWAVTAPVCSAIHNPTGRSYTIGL
Sequence of PRMT5-MEP50 (Q9BQA1 whole entry partner): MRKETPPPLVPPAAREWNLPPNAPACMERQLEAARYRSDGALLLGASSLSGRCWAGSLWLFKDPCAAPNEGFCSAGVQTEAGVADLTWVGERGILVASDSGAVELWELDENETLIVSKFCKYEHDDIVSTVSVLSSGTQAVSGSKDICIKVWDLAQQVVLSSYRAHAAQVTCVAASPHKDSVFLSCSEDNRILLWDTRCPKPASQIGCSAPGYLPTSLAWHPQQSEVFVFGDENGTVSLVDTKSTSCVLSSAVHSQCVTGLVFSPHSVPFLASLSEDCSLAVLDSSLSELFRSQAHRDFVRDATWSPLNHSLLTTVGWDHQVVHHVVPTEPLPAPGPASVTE

| Structure (SMILES) | IC50 |
| --- | --- |
| CNc1ccc2ccc(OC[C@H]3O[C@@H](n4cc(-c5ccn(C6CCC6)n5)c5c(N)ncnc54)[C@@H](F)[C@@H]3O)cc2n1 [I-143] | 0.1 to 1 µM |
| C=CCc1cn([C@@H]2O[C@H](COc3ccc4ccc(NC)nc4c3)[C@@H](O)[C@H]2O)c2ncnc(N)c12 [I-226] | < 0.01 µM |
| CNc1ccc2ccc(OC[C@H]3O[C@H](n4cc(C(O)C5CC5)c5c(N)ncnc54)[C@H](O)[C@@H]3O)cc2n1 (stereo partly drawn) [I-227] | < 0.01 µM |
| CNc1ccc2ccc(OC[C@H]3O[C@@H](n4cc(F)c5c(N)ncnc54)[C@@H](F)[C@@H]3O)cc2n1 [I-230] | 0.01 to 0.1 µM |

Same assay, conditions: read-out: PRMT5 IC50; PRMT5 biochemical assay

| Structure (SMILES) | IC50 |
| --- | --- |
| CCNc1ccc2ccc(OC[C@H]3O[C@@H](n4cc(-c5ccn(C)n5)c5c(N)ncnc54)[C@@H](F)[C@@H]3O)cc2n1 [I-7] | 0.01 to 0.1 µM |
| CNc1ccc2ccc(OC[C@H]3O[C@@H](n4cc(-c5ccn(C6COC6)n5)c5c(N)ncnc54)[C@@H](F)[C@@H]3O)cc2n1 [I-144] | 0.1 to 1 µM |
